# Data reported in patent US20220177954A1, “NUCLEIC ACID PROBES” (CYTOTEST INC., priority 2020, published 2022).
# Columns and labels:
# [1] = test system: PC-3 cell lines wt, chd1 ko1, chd1 ko2; assay: Viability cell proliferation assay (PrestoBlue) in PC-3 wt versus chd1 ko isogenic cell lines; type: cell-based, human; conditions: CHD1 deficient (CRISPR-Cas9 knock out) PC-3 cells versus wild type, 24 hrs exposure, then 5 days drug-free
# Protocol: PC-3 prostate cell line was purchased from ATCC® and grown in RPMI 1640 (Gibco) supplemented with 10% FBS (Gibco). RPE1-CHD1 knock out cells were provided by Alan D. D'Andrea's laboratory. Cells were incubated at 37° C. in 5% CO2, and regularly tested for Mycoplasma spp. contamination.
# Full length SpCas9 ORF was introduced in PC-3 cell population by Lentiviral transduction using lentiCas9-Blast (Addgene #52962) construction. After antibiotics (blasticidin) selection, survival populations were single cell cloned, isogenic cell lines were generated and tested for Cas9 activity by cleavage assay.
# CHD1 was targeted in stable CRISPR-Cas9 expressor isogenic PC-3 cell line using guide RNA CHD1_ex2_g1 (caccg[…]), resulting in PC-3 chd1 ko 1, and chd1 ko 2 homozygous loss cell lines.
# Exponentially growing PC-3 cell lines wt, chd1 ko1, chd1 ko2 were seeded in 96-well plates (1000 cells/well) and incubated for 36 hrs to facilitate cell attachment. Identical cell numbers of seeded parallel isogenic lines were verified by the Celigo Imaging Cytometer after attachment.
# Cells were exposed to Talazoparib (Selleckchem), Olaparib (MedChemExpress) and Bleomycin sulfate (Fisher Scientific) for 24 hrs, then kept in drug-free fresh media for 5 days until cell growth was determined by the addition of PrestoBlue (Invitrogen) and incubated for 2.5 hrs. Cell viability was determined by using the BioTek plate reader system. Fluorescence was recorded at 560 nm/590 nm, and values were calculated based on the fluorescence intensity. IC50 values were determined by using the AAT Bioquest IC50 calculator tool. P-values were calculated using student's t-test. P-values <0.05 were considered statistically significant.
# [2] = test system: CHD1 null cells; conditions: cited from earlier work
Molecule,increase in sensitivity upon CHD1 deletion [1],olaparib sensitivity of CHD1-deficient cancer cells [2]
Bleomycin sulfate,5 fold,
"Cn1ncnc1[C@H]1c2n[nH]c(=O)c3cc(F)cc(c23)N[C@@H]1c1ccc(F)cc1 [talazoparib, Talazoparib]",15-20 fold,
"O=C(c1cc(Cc2n[nH]c(=O)c3ccccc23)ccc1F)N1CCN(C(=O)C2CC2)CC1 [olaparib, Olaparib]",approximately 5 fold,relatively mild
